The record followed here is EP1818063A1, “MEDICINE FOR TREATMENT OF DISEASE CAUSED BY HYPERSTIMULATORY CYTOTOXICITY AND THERAPEUTIC METHOD” (Japan Science and Technology Agency, priority 2004, dated 2006).

Common to all, as to format: cell-based, mouse
Assay [1] has as its system volume-sensitive Cl- channel. Put plainly: Whole-cell patch-clamp of current activated by hyposmotic stimulation. The following applies: primary cultured cerebral cortical neurons. The protocol: The cerebral cortex of fetuses removed from mice on day 16 of pregnancy was plated on cover-glass slips after digestion with papain. To prevent growth of glias and other proliferative cells, the cultures were supplemented with AraC (4 µM) 2 days after plating and a neuron-rich (>95%) culture system was prepared. A whole-cell patch-clamp technique was applied to primary cultures of cerebral cortical neurons (5-8 days after incubation). The intracellular and extracellular solutions used for the patch-clamp experiments were composed of the following. Intracellular solution (300mOsm, pH 7.4): 24 mM NMDG-C1, 100 mM NMDG-aspartate, 2 mM MgCl2, 5 mM Na2ATP, 0.3 mMNa3 GTP, 1 mM EGTA, 10 mM HEPES. […] Osmolality was adjusted by adding mannitol. Current activation was observed overtime by applying a potential of ±60 mV (500 ms duration, every 15 s) from a holding potential of -40 mV. To observe current kinetics, step pulses from -100 mV to +100 mV in 20 mV increments were applied (0.5 s duration) and current response was observed. The recordings were plotted in a current-voltage curve.
In general terms: In patch-clamp work, channel activity is measured electrically.

The subject of assay [2] is primary cultured cerebral cortical neurons. The assay is described as follows: Varicosity formation (neuronal swelling) during excitotoxic NMDA stimulation. The protocol: (§1) In order to access effects of volume-sensitive Cl- channel blocker on neuronal swelling or necrosis caused by hyperexcitation, primary cultures of cerebral cortical neurons isolated from fetuses removed from mice on day 16 of pregnancy were used. The primary cultured cerebral cortical neurons were cultured in a 5% CO2 incubator at 37°C, using Dulbecco's medium supplemented with 10% fetal bovine serum, streptomycin, and penicillin. To visualize dendrites, the cultured cerebral cortical neurons were transfected with EGFP gene on day 3 of culture, using a […] phosphate method. As an excitotoxic stimulant, Earle's Balanced Salt Solution (EBSS; commercially available as GIBCO#14155-063) was used that contained 30 µM N-methyl-D-aspartate (NMDA) and 30 µM glycine, supplemented with 2 mM CaCl2 and 0.5 mM MgCl2. To confirm activation of volume-sensitive Cl- channel, an experiment was conducted using a perforated-vesicle patch-clamp technique. After forming a gigaohm seal on the membrane of the varicosities exposed to excitotoxic stimulation, recording electrodes were raised to record currents from a single varicosity patch membrane. The intracellular and extracellular solutions used for the patch-clamp experiment were composed of the following. Extracellular solution: 124 mM N-methyl-D-glucamine (NMDG), 124 mM HCl, 20 mM TEA-Cl, 4 mM MgCl2, 0.33 mM NaH2PO4, 0.5 mM EGTA, 10 mM 2-[4-(2-hydroxyethyl)-1-piperazinyl] ethanesulfonic acid (HEPES), 2 mM 4-aminopyridine (4-AP), 5.5 mM glucose, 270mOsm, pH7.4. Intracellular solution: 145 mM KCl, 10 mM HEPES, 1 mM EGTA, 1 mM MgCl2, 0.3 mg/ml nystatin, 300mOsm, pH 7.4.
Neuronal swelling was assessed as a proportion of varicosity-forming cells in the total number of neurons. After 20-minute excitotoxic stimulation, the cells were fixed with 4% paraformaldehyde, and the number of cells in each cell group was counted with a fluorescent microscope.
Figure 7A is micrographs showing excitotoxic swelling of neurons induced by glutamate receptor agonist (30 µM NMDA). Primary cultured cerebral cortical neurons were visualized through EGFP expression. […] Figure 7B represents inhibitory action of Cl- channel blocker on varicosity formation. In the Figure, asterisk indicates a level of significant difference (p<0.05) from data on NMDA (before application of blocker).

The subject of assay [3] is volume-sensitive Cl- channel. The assay is described as follows: Perforated-vesicle patch-clamp of single-channel currents on the varicosity membrane. The protocol:
In order to access effects of volume-sensitive Cl- channel blocker on neuronal swelling or necrosis caused by hyperexcitation, primary cultures of cerebral cortical neurons isolated from fetuses removed from mice on day 16 of pregnancy were used. The primary cultured cerebral cortical neurons were cultured in a 5% CO2 incubator at 37°C, using Dulbecco's medium supplemented with 10% fetal bovine serum, streptomycin, and penicillin. To visualize dendrites, the cultured cerebral cortical neurons were transfected with EGFP gene on day 3 of culture, using a […] phosphate method. As an excitotoxic stimulant, Earle's Balanced Salt Solution (EBSS; commercially available as GIBCO#14155-063) was used that contained 30 µM N-methyl-D-aspartate (NMDA) and 30 µM glycine, supplemented with 2 mM CaCl2 and 0.5 mM MgCl2. To confirm activation of volume-sensitive Cl- channel, an experiment was conducted using a perforated-vesicle patch-clamp technique. […]
After forming a gigaohm seal on the membrane of varicosities formed by excitotoxic stimulation (Figure 8A), the recording electrodes were lifted up to excise a single varicosity, with which recordings of volume-sensitive Cl- currents were made (Figure 8B). […] These properties of the recorded currents coincided with those of the volume-sensitive Cl- channel.

The test system of assay [4] is primary cultured cerebral cortical neurons. The assay is described as follows: Necrotic neuronal cell death by LDH release after NMDA exposure. Here is the method:
as §1
(§2) Necrotic neuronal cell death was assessed by PI staining in which the nuclei are stained with a propidium iodide (PI) dye that enters the cells through damaged portions of the plasma membrane, or by measuring the level of extracellular lactate dehydrogenase (LDH) released from dead cells.
Background: Release of lactate dehydrogenase indicates damage to the cell membrane.

The test system is the same in assay [5]. Put plainly: Necrotic neuronal cell death by PI staining after NMDA exposure. The protocol: as §1, §2
Assay [6] has as its system cerebral cortical neurons. The assay is described as follows: Volume regulation (recovery from swelling) under hypotonic conditions, soma cross-sectional area by two-photon microscopy. The following applies: 80 µM; hyposmotic solution 200mOsm.
Experimental: Primary cultured neurons on day 5-8 of culture were loaded with calcein-AM to visualize the cells, and X-Y cross sectional images were captured over time with a two-photon laser microscope. Cell size was assessed based on changes in cross sectional area of the soma. An area ratio at each time point was calculated and plotted on a graph, with the area at the start of experiment given as 1 (Figure 2B). The solution used for the experiment had the following composition: 90 mM NaCl, 2.5 mM KCl, 5 mM HEPES, 2 mM MgCl2, 2 mM CaCl2, and 10 mM glucose.
Assay [7] relates to EGFP-transfected primary cultured cerebral cortical neurons. Put plainly: Recovery from varicosities after removal of excitotoxic (NMDA) stimulation. The following applies: 60 minutes after 20-minute 30 µM NMDA stimulation; concentration not given. The protocol: Primary cultured cerebral cortical neurons were transfected on day 3 of culture with a plasmid containing green fluorescent protein EGFP gene, using a […] phosphate method. […] Cells on day 2-6 of transfection were used for the experiment.
The cells were subjected to an excitotoxic stimulant by 20-minute exposure to low-magnesium HEPES buffer (composition: 142 mM NaCl, 2.5 mM KCl, 0.5 mM EGTA, 0.5 mM MgCl2, 0.33 mM NaH2PO4, 10 mM HEPES, 5.5 mM glucose, 0.03 mM glycine) containing NMDA (30 µM). After stimulation, the cells were washed three times with normal HEPES buffer (composition: 140 mM NaCl, 2.5 mM KCl, 2 mM CaCl2, 2 mM MgCl2, 10 mM HEPES, 5.5 mM glucose, 35 mM mannitol). The cells were then incubated at 37°C in the same buffer, and fixed with 4% paraformaldehyde at different time points (0, 15, 30, 60 min).
As in Example 4, EGFP-transfected primary cultured cerebral cortical neurons were used. According to the procedure of Example 4, the cells were subjected to excitotoxic stimulation, and incubated with normal HEPES buffer supplemented with various kinds of medicines. After 60 minutes, the cells were fixed with 4% paraformaldehyde, and the number of varicosity-bearing cells was counted with a fluorescent microscope as a percentage of the total number of counted neurons.

Setting [8] is: 40 µM co-applied with NMDA for 3 hours.
[9] abbreviates: 100 µM during 20-minute 30 µM NMDA stimulation.
[10] abbreviates: 100 µM co-applied with NMDA for 3 hours.

Read-outs that look alike come from different tables or passages of the source.

Take `O=S(=O)(O)c1cc(N=C=S)ccc1C=Cc1ccc(N=C=S)cc1S(=O)(=O)O` [DIDS]: the “inhibition of current activated by hyposmotic stimulation” value (“inhibition of current activated” below) in assay [1] (400 µM) was “inhibited”.
For `O=C(O)c1cc([N+](=O)[O-])ccc1NCCCc1ccccc1` [NPPB], the “number of varicosity-forming neurons” value in assay [2] (40 µM during 20-minute 30 µM NMDA stimulation) is recorded as “decreased significantly”. The “single-channel events observed on the varicosity” value in assay [3] (80 µM, 3 minutes after application) is listed as “blocked”. Besides, the “blocking effect after removal” value in assay [3] (3 minutes after removal of 80 µM) is “reversible”. Also, the “level of LDH release” value in assay [4] (setting [8]) was “significantly inhibited”. Also, the “number of PI positive cells” value in assay [5] (setting [8]) is “decreased significantly”. The volume regulation result in assay [6] is recorded as “inhibited”. Besides, the Recovery from varicosities result in assay [7] is given as “significantly inhibited”. In addition, the “inhibition of current activated” value in assay [1] (80 µM) is reported as “inhibited”.
In the case of `CN1CCc2cc3c(cc2[C@H]1[C@@H]1OC(=O)c2c1ccc1c2OCO1)OCO3` [bicuculline], in assay [2], the “number of varicosity-forming neurons” value was “no significant inhibiting effects”. Also, the “level of LDH release” value in assay [4] is listed as “No inhibiting effects”. The “number of PI positive cells” value in assay [5] is given as “no significant inhibiting effects”.
On to `O=C(CCc1ccc(O)cc1)c1c(O)cc(O)cc1O` [phloretin], for which the “number of varicosity-forming neurons” value in assay [2] (setting [9]) is “decreased significantly”. Moreover, in assay [4] (setting [10]), the “level of LDH release” value is listed as “significantly inhibited”. The “number of PI positive cells” value in assay [5] (setting [10]) is given as “decreased significantly”. The Recovery from varicosities result in assay [7] is listed as “significantly inhibited”. Further, in assay [1] (100 µM), the “inhibition of current activated” value is “inhibited”.
picrotoxin: the “number of varicosity-forming neurons” value in assay [2] (setting [9]) is recorded as “no significant inhibiting effects”. The “level of LDH release” value in assay [4] (setting [10]) was “No inhibiting effects”. For the same compound, the “number of PI positive cells” value in assay [5] (setting [10]) is on record as “no significant inhibiting effects”.
